Experimental data from patent US20260256777A1, “DEGRADANT COMPOUND IN A MEDICAMENT” (VISUS THERAPEUTICS, INC., priority 2020, published 2026).

What was measured:
[1] = Forced degradation samples analysed by prototype HPLC method; type: physicochemical
Experimental: A new prototype HPLC method has been developed to study early eluting peaks not well separated by the method described in Example 3, Table 3. The method better separates early eluting brimonidine-related impurities. All sample solutions from the Phase I and II stress studies were analyzed with the prototype method. […] This was consistent with the analysis results per the method described in Example 4, Table 6. Another unknown impurity, impurity B, was also observed in the chromatogram for the 0.1 M NaOH and heat-stressed combined API sample at RT 3.44 min with a level of ~0.05% relative to the brimonidine peak area. The extracted UV spectrum for impurity B is consistent with the UV Spectrum previously observed in stability samples.

[2] = Forced degradation of combined brimonidine tartrate and carbachol APIs, LC-PDA analysis; type: physicochemical; conditions: 66 hours
Experimental: Following the procedures shown in Table 9, the two APIs combined were stressed with moisture and heat (Sample A), 0.1 M HCl at room temperature (Sample B), 0.1 M NaOH at room temperature (Sample C), vehicle and heat (Sample D), 1 M HCl at room temperature (Sample E), and 1 M NaOH at room temperature (Sample F) for 66 hours. A drug product vehicle was stressed under heat for 66 hours as a control (Sample G). After the stress treatment was completed, all samples were removed from condition, allowed to cool to room temperatures, then neutralized where appropriate, and brought to a similar concentration level. The samples were capped and shaken until all the materials in each sample were dissolved. Then each sample solution was diluted in the HPLC method diluent used in Example 4, Table 6 and mixed well. For retention time verification purposes, a reference sample solution was also prepared using a carbachol/brimonidine six month accelerated stability sample (Table 8). The brimonidine tartrate analytical concentration for all of the degraded and the reference sample solutions was 0.1 mg/mL.
All of the sample solutions prepared as described in Table 9 were analyzed per the HPLC-PDA method shown in Example 4, Table 6. […] The level of the impurity present in both base-stressed samples is about 0.02% relative to that of the brimonidine peak. The extracted UV spectra for the RRT 0.91 impurity from the carbachol/brimonidine formulation (6 month accelerated stability sample) and the two base-stressed samples are similar for each.
The Phase I forced degradation study confirmed that the RRT 0.91 impurity was formed when the two APIs together were stressed under basic (either 0.1 M NaOH or 1 M NaOH) conditions and at room temperatures. To study temperature impact on the reaction, the two APIs, brimonidine tartrate and carbachol, were combined and stressed under both base and heat (45° C.) conditions simultaneously.
Additionally, to further confirm that the presence of both APIs was needed for the formation of the RRT 0.91 peak, individual API samples were also stressed in the same way. […] After the stress treatment was completed, all samples (H-M) were removed from condition, allowed to cool to room temperatures, neutralized where appropriate, and brought to a similar concentration level. The samples were capped and shaken until all the materials in each flask were dissolved. Then each sample solution was diluted in the HPLC method diluent (Example 4, Table 6) and mixed well.
All the base and heat-stressed sample solutions prepared as described in Table 10 were analyzed by LC-PDA analysis per the method shown in Example 4, Table 6. […] This further confirmed that the RRT 0.91 impurity was a reaction product of the two APIs.

Row | Compound | impurity B level relative to the brimonidine peak area ([1]; 0.1 M NaOH and heat-stressed combined API sample) | impurity B level ([1]; other base-stressed combined APIs) | Relative % Peak Area for RRT 0.91 Impurity (Versus Peak Area of Brimonidine) ([2]; 0.1M NaOH, 45° C.) [%] | Relative % Peak Area for RRT 0.91 Impurity (Versus Peak Area of Brimonidine) ([2]; 0.1M NaOH, room temperature) [%] | Relative % Peak Area for RRT 0.91 Impurity (Versus Peak Area of Brimonidine) ([2]; 0.1M NaOH, room temperature, listed as RRT 0.91 impurity) | Relative % Peak Area for RRT 0.91 Impurity (Versus Peak Area of Brimonidine) ([2]; 1M NaOH, 45° C.) [%] | Relative % Peak Area for RRT 0.91 Impurity (Versus Peak Area of Brimonidine) ([2]; 1M NaOH, room temperature) [%] | Relative % Peak Area for RRT 0.91 Impurity (Versus Peak Area of Brimonidine) ([2]; 1M NaOH, room temperature, listed as RRT 0.91 impurity)
1 | NC(=O)NCCNC(=O)Nc1ccc2nccnc2c1Br [Impurity B, 1-(5-bromoquinoxalin-6-yl)-3-(2-ureidoethyl)urea] | ~ 0.05% | very low levels |  |  |  |  |  | 
2 | NC(=O)N1CCN=C1Nc1ccc2nccnc2c1Br [RRT 0.91 Impurity, 2-((5-bromoquinoxalin-6-yl)amino)-4,5-dihydro-1H-imidazole-1-carboxamide] |  |  | 0.15 | 0.02 | about 0.02% | 0.03 | 0.02 | about 0.02%
